Source: patent US20120148682A1

Legend:
[1] = test system: Leptosphaeria nodorum (LEPTNO); experiment: In vitro fungitoxicity (growth inhibition) in copper-minus and copper-plus medium; type: cell-based
Procedure: Trace elements (minus CuSO4), and vitamins described by Coursen and […] were added from concentrated stock solutions and the entire medium was sterilized by filtration. […] […] was grown on potato dextrose agar in 9 cm diameter petri dishes for 7 days. Sterile deionized water (20 mL) was added to a culture plate and spores suspended by scraping the surface gently with a sterile plastic loop. The resulting suspension was filtered through a double layer of sterile cheesecloth. Filtered spore suspension (5 mL) was centrifuged in a bench centrifuge at 2000 rpm for 2 min. […] Microtiter plates were inoculated with 100 μL of this spore suspension and the plates incubated at 25° C. for 72 h before assessing fungal growth by measuring light scattering in a NepheloStar plate reader. Growth inhibition was determined by comparing growth in the presence of test compound with growth in control wells lacking test compound. Results for growth inhibition by test compounds in copper-plus medium (“% Inhn. Plus Copper Observed”) were compared with predicted values (“% Inhn. Plus Copper Predicted”) that were calculated using the formula set forth by S. R. […] Minus Copper Observed”) and the inhibition attributed to copper chloride alone, as determined by comparing growth in copper-minus and copper-plus media without any test compound across experiments. Results illustrate that hydrazones and copper produce a synergistic fungitoxic effect towards […].

Phytophthora infestans = type: in vivo; details: 50 ppm hydrazone with 50 μM CuCl2.2H2O, applied 24 h before inoculation, tomato plants, 7 days after inoculation
Phytophthora capsici = experiment: In vitro fungitoxicity in copper-minus AS and copper-plus AS medium; type: cell-based; details: CuCl2 50 uM, without test compound, across experiments
Procedure: Plates were inoculated with 7-mm plugs from a 1-week old culture, incubated at 25° C. in the dark for 3 days, and then placed under fluorescent lights for 4 days to induce sporulation. Zoospore release from sporangia was induced by adding 15 mL of sterile deionized water (which had been treated with Chelex 100 resin using 0.5 g resin per liter of water by stirring at room temperature for 1 h) to each plate, and incubating for 10 min at 25° C. followed by 20 min at 4° C. The plates were returned to 25° C. for 10 min and the aqueous suspension of released zoospores was recovered. The zoospore suspension was adjusted to 5×10^4 spores/mL by dilution into Chelex 100-treated water. Microtiter plates were inoculated with 100 μL of spore suspension and incubated at 25° C. for 48 h before assessing fungal growth by measuring light scattering in a NepheloStar plate reader. Growth inhibition was determined by comparing growth in the presence of test compound with growth in control wells lacking test compound. Results for growth inhibition by test compounds in copper-plus AS medium (“% Inhn. Plus Copper Observed”) were compared with predicted values (“% Inhn. Plus Copper Predicted”) that were calculated using the formula set forth by S. R. […]

Ustilago maydis = experiment: In vitro fungitoxicity in copper-minus and copper-plus medium; type: cell-based; details: CuCl2 10 μM, without test compound
Procedure: Test compounds were dissolved in dimethylsulfoxide (DMSO) at 200 μg/mL and 1 μL aliquots were added to two wells of flat-bottomed 96-well microtiter plates. […] Control wells, included for each medium, received 1 uL DMSO and 100 μL of medium. Ustilago maydis was grown in 50 mL potato dextrose broth with shaking at 25° C. for 24 h. A 10 mL aliquot of the culture was centrifuged at 2000 rpm for 2 min, resuspended in 10 mL of sterile Chelex 100-treated water, and centrifuged again. […] Microtiter plate wells containing test compound of DMSO (control) as described above were inoculated with 100 μL of this spore suspension and the plates incubated at 25° C. for 48 h before assessing fungal growth by measuring light scattering in a NepheloStar plate reader. Growth inhibition was determined by comparing growth in the presence of test compound with growth in control wells lacking test compound. […] Plus Copper Observed”) were compared with predicted results (“% Inhn. Plus Copper Predicted”) that were calculated using the formula set forth by S. R. […] Minus Copper Observed”) and the inhibition attributed to copper chloride alone, as determined by comparing growth in copper-minus and copper-plus media without any test compound. Results illustrate that hydrazones and copper produce a synergistic fungitoxic effect towards Ustilago maydis.

[2] = test system: Septoria tritici isolate USA-184; experiment: as above; type: cell-based; details: CuCl2 1 μM, without test compound
Procedure: Test compounds were dissolved in dimethylsulfoxide (DMSO) at 10 μg/mL and 1 μL aliquots were added to two wells of flat-bottomed 96-well microtiter plates. […] Control wells, included for each medium, received 1 uL DMSO and 100 μL of medium. Septoria tritici isolate USA-184 was grown on potato dextrose agar at 18° C. under black lights for 3 days. A loopful of spores was transferred from the culture to a 15 mL tube containing 5 mL of sterile Chelex-treated water. The spores were centrifuged at 2000 rpm for 2 min, resuspended in 10 mL water, and centrifuged again. […] Microtiter plate wells containing test compound of DMSO (control) as described above were inoculated with 100 μL of this spore suspension and the plates incubated at 25° C. for 90 h before assessing fungal growth by measuring light scattering in a NepheloStar plate reader. Growth inhibition was determined by comparing growth in the presence of test compound with growth in control wells lacking test compound. […] Plus Copper Observed”) were compared with predicted results (“% Inhn. Plus Copper Predicted”) that were calculated using the formula set forth by S. R. […] Minus Copper Observed”) and the inhibition attributed to copper chloride alone, as determined by comparing growth in copper-minus and copper-plus media without any test compound. […]

[3] = test system: Staphylococcus aureus, Escherichia coli, Aspergillus niger and A. flavus; details: Proceedings of the National Academy of Sciences, India 1991; cited from earlier work

O=C(N/N=C/c1cccc(C(F)(F)F)c1O)c1ccc(C(F)(F)F)cc1O [Compound 42]
melting point: 248 to 253 °C
LEPTNO % Inhn. Plus Copper Observed ([1]; 0.05 μg/mL compound, copper-plus medium (CuCl2, 10 μM), 72 h): 98.4%
inhibition of growth at 0.05 µg/mL ([1]; Parastagonospora nodorum, 0.05 μg/mL compound, copper-minus medium, 72 h, read-out: LEPTNO % Inhn. Minus Copper Observed): 8.8%
TLB % Control (Phytophthora infestans): 100.0%

[Cl][Cu][Cl] [CuCl2, copper chloride]
% Inhn copper chloride alone (Phytophthora capsici): 4.5 ± 7.9%
LEPTNO % Inhn. copper chloride alone ([1]; CuCl2 10 μM, without test compound, across experiments): 7.1 ± 6.0%
% Inhn. copper chloride alone (Ustilago maydis): 11.9%
% Inhibition copper chloride alone [2]: 0%
% Inhibition copper chloride alone ([2]; listed as copper chloride): no effect on growth

O=C(NN=Cc1ccccc1O)c1ccccc1O [o-hydroxybenzaldehyde-N-salicyloylhydrazone]
antimicrobial activity [3]: Antimicrobial activity has been reported
